In ChEMBL document CHEMBL2057203, “Synthesis and evaluation of novel F-18 labeled 4-aminoquinazoline derivatives: potential PET imaging agents for tumor detection” (Bioorg Med Chem Lett, 2012):

Columns and labels:
Lung [1] = assay: Biodistribution in S180 tumor-bearing mouse lungs at 8 to 10 uCi, iv after 5 mins by gamma counting; type: ADME, organism-based; conditions: in vivo
Nucleic Acid [2] = assay: Ratio of drug level in tumor to muscle in S180 tumor-bearing mouse at 8 to 10 uCi, iv at 5 mins by gamma counting; type: ADME, organism-based; conditions: in vivo
Nucleic Acid [3] = assay: Ratio of drug level in tumor to brain in S180 tumor-bearing mouse at 8 to 10 uCi, iv at 60 mins by gamma counting; type: ADME, organism-based; conditions: in vivo, 1 h
Muscle tissue [4] = assay: Biodistribution in S180 tumor-bearing mouse muscle at 8 to 10 uCi, iv after 120 mins by gamma counting; type: ADME, organism-based; conditions: in vivo, 2 h
Liver [5] = assay: Biodistribution in S180 tumor-bearing mouse liver at 8 to 10 uCi, iv after 30 mins by gamma counting; type: ADME, organism-based; conditions: in vivo, 0.5 h
Lung [6] = assay: Biodistribution in S180 tumor-bearing mouse lung at 8 to 10 uCi, iv after 30 mins by gamma counting; type: ADME, organism-based; conditions: in vivo, 0.5 h
Brain [7] = assay: Biodistribution in S180 tumor-bearing mouse brain at 8 to 10 uCi, iv after 5 mins by gamma counting; type: ADME, organism-based; conditions: in vivo
Nucleic Acid [8] = assay: Ratio of drug level in tumor to blood in S180 tumor-bearing mouse at 8 to 10 uCi, iv at 30 mins by gamma counting; type: ADME, organism-based; conditions: tumour, 0.5 h
Brain [9] = assay: Biodistribution in S180 tumor-bearing mouse brain at 8 to 10 uCi, iv after 30 mins by gamma counting; type: ADME, organism-based; conditions: in vivo, 0.5 h
Heart [10] = assay: Biodistribution in S180 tumor-bearing mouse heart at 8 to 10 uCi, iv after 60 mins by gamma counting; type: ADME, organism-based; conditions: in vivo, 1 h
Nucleic Acid [11] = assay: Ratio of drug level in tumor to brain in S180 tumor-bearing mouse at 8 to 10 uCi, iv at 30 mins by gamma counting; type: ADME, organism-based; conditions: in vivo, 0.5 h
[12] = Chemical stability in PBS after 2 hrs by radio-HPLC analysis at room temperature; type: physicochemical; conditions: buffer
Mus musculus [13] = assay: Biodistribution in S180 cells xenografted in mouse tumor at 8 to 10 uCi, iv after 120 mins by gamma counting; type: ADME, organism-based, Neoplasm, CCRF S-180; conditions: in vivo, 2 h
Blood [14] = assay: Biodistribution in S180 tumor-bearing mouse blood at 8 to 10 uCi, iv after 5 mins by gamma counting; type: ADME, organism-based; conditions: in vivo
Spleen [15] = assay: Biodistribution in S180 tumor-bearing mouse spleen at 8 to 10 uCi, iv after 60 mins by gamma counting; type: ADME, organism-based; conditions: in vivo, 1 h
Liver [16] = assay: Biodistribution in S180 tumor-bearing mouse liver at 8 to 10 uCi, iv after 5 mins by gamma counting; type: ADME, organism-based; conditions: in vivo
Heart [17] = assay: Biodistribution in S180 tumor-bearing mouse heart at 8 to 10 uCi, iv after 5 mins by gamma counting; type: ADME, organism-based; conditions: in vivo
Nucleic Acid [18] = assay: Ratio of drug level in tumor to brain in S180 tumor-bearing mouse at 8 to 10 uCi, iv at 5 mins by gamma counting; type: ADME, organism-based; conditions: in vivo
Blood [19] = assay: Biodistribution in S180 tumor-bearing mouse blood at 8 to 10 uCi, iv after 60 mins by gamma counting; type: ADME, organism-based; conditions: in vivo, 1 h
Nucleic Acid [20] = assay: Ratio of drug level in tumor to muscle in S180 tumor-bearing mouse at 8 to 10 uCi, iv at 30 mins by gamma counting; type: ADME, organism-based; conditions: in vivo, 0.5 h
Mus musculus [21] = assay: Biodistribution in S180 cells xenografted in mouse tumor at 8 to 10 uCi, iv after 30 mins by gamma counting; type: ADME, organism-based, Neoplasm, CCRF S-180; conditions: in vivo, 0.5 h
Nucleic Acid [22] = assay: Ratio of drug level in tumor to brain in S180 tumor-bearing mouse at 8 to 10 uCi, iv at 120 mins by gamma counting; type: ADME, organism-based; conditions: in vivo, 2 h
Stomach [23] = assay: Biodistribution in S180 tumor-bearing mouse stomach at 8 to 10 uCi, iv after 5 mins by gamma counting; type: ADME, organism-based; conditions: in vivo
Lung [24] = assay: Biodistribution in S180 tumor-bearing mouse lung at 8 to 10 uCi, iv after 120 mins by gamma counting; type: ADME, organism-based; conditions: in vivo, 2 h
Blood [25] = assay: Biodistribution in S180 tumor-bearing mouse blood at 8 to 10 uCi, iv after 30 mins by gamma counting; type: ADME, organism-based; conditions: in vivo, 0.5 h
Heart [26] = assay: Biodistribution in S180 tumor-bearing mouse heart at 8 to 10 uCi, iv after 30 mins by gamma counting; type: ADME, organism-based; conditions: in vivo, 0.5 h
Muscle tissue [27] = assay: Biodistribution in S180 tumor-bearing mouse muscle at 8 to 10 uCi, iv after 60 mins by gamma counting; type: ADME, organism-based; conditions: in vivo, 1 h
Spleen [28] = assay: Biodistribution in S180 tumor-bearing mouse spleen at 8 to 10 uCi, iv after 30 mins by gamma counting; type: ADME, organism-based; conditions: in vivo, 0.5 h
Lung [29] = assay: Biodistribution in S180 tumor-bearing mouse lung at 8 to 10 uCi, iv after 60 mins by gamma counting; type: ADME, organism-based; conditions: in vivo, 1 h
Muscle tissue [30] = assay: Biodistribution in S180 tumor-bearing mouse muscle at 8 to 10 uCi, iv after 30 mins by gamma counting; type: ADME, organism-based; conditions: in vivo, 0.5 h
Nucleic Acid [31] = assay: Ratio of drug level in tumor to blood in S180 tumor-bearing mouse at 8 to 10 uCi, iv at 60 mins by gamma counting; type: ADME, organism-based; conditions: tumour, 1 h
Nucleic Acid [32] = assay: Ratio of drug level in tumor to blood in S180 tumor-bearing mouse at 8 to 10 uCi, iv at 120 mins by gamma counting; type: ADME, organism-based; conditions: tumour, 2 h
Stomach [33] = assay: Biodistribution in S180 tumor-bearing mouse stomach at 8 to 10 uCi, iv after 120 mins by gamma counting; type: ADME, organism-based; conditions: in vivo, 2 h
Kidney [34] = assay: Biodistribution in S180 tumor-bearing mouse kidney at 8 to 10 uCi, iv after 120 mins by gamma counting; type: ADME, organism-based; conditions: in vivo, 2 h
Kidney [35] = assay: Biodistribution in S180 tumor-bearing mouse kidney at 8 to 10 uCi, iv after 30 mins by gamma counting; type: ADME, organism-based; conditions: in vivo, 0.5 h
Blood [36] = assay: Clearance in S180 tumor-bearing mouse blood at 8 to 10 uCi, iv at 120 mins; type: ADME, organism-based; conditions: in vivo, 2 h
Mus musculus [37] = assay: Biodistribution in S180 cells xenografted in mouse tumor at 8 to 10 uCi, iv after 5 mins by gamma counting; type: ADME, organism-based, Neoplasm, CCRF S-180; conditions: in vivo
Heart [38] = assay: Biodistribution in S180 tumor-bearing mouse heart at 8 to 10 uCi, iv after 120 mins by gamma counting; type: ADME, organism-based; conditions: in vivo, 2 h
Kidney [39] = assay: Biodistribution in S180 tumor-bearing mouse kidney at 8 to 10 uCi, iv after 60 mins by gamma counting; type: ADME, organism-based; conditions: in vivo, 1 h
Blood [40] = assay: Biodistribution in S180 tumor-bearing mouse blood at 8 to 10 uCi, iv after 120 mins by gamma counting; type: ADME, organism-based; conditions: in vivo, 2 h
Stomach [41] = assay: Biodistribution in S180 tumor-bearing mouse stomach at 8 to 10 uCi, iv after 30 mins by gamma counting; type: ADME, organism-based; conditions: in vivo, 0.5 h
Stomach [42] = assay: Biodistribution in S180 tumor-bearing mouse stomach at 8 to 10 uCi, iv after 60 mins by gamma counting; type: ADME, organism-based; conditions: in vivo, 1 h
[43] = Chemical stability in PBS after 2 hrs by radio-HPLC analysis at 60 degC; type: physicochemical; conditions: buffer
Spleen [44] = assay: Biodistribution in S180 tumor-bearing mouse spleen at 8 to 10 uCi, iv after 120 mins by gamma counting; type: ADME, organism-based; conditions: in vivo, 2 h
Spleen [45] = assay: Biodistribution in S180 tumor-bearing mouse spleen at 8 to 10 uCi, iv after 5 mins by gamma counting; type: ADME, organism-based; conditions: in vivo
Nucleic Acid [46] = assay: Ratio of drug level in tumor to muscle in S180 tumor-bearing mouse at 8 to 10 uCi, iv at 120 mins by gamma counting; type: ADME, organism-based; conditions: in vivo, 2 h
Muscle tissue [47] = assay: Biodistribution in S180 tumor-bearing mouse muscle at 8 to 10 uCi, iv after 5 mins by gamma counting; type: ADME, organism-based; conditions: in vivo
Brain [48] = assay: Biodistribution in S180 tumor-bearing mouse brain at 8 to 10 uCi, iv after 120 mins by gamma counting; type: ADME, organism-based; conditions: in vivo, 2 h
Kidney [49] = assay: Biodistribution in S180 tumor-bearing mouse kidneys at 8 to 10 uCi, iv after 5 mins by gamma counting; type: ADME, organism-based; conditions: in vivo
Nucleic Acid [50] = assay: Ratio of drug level in tumor to muscle in S180 tumor-bearing mouse at 8 to 10 uCi, iv at 60 mins by gamma counting; type: ADME, organism-based; conditions: in vivo, 1 h
Plasma = assay: Metabolic stability in mouse plasma after 2 hrs by radio-HPLC analysis; type: ADME, cell-free
[51] = n-octanol-PBS partition coefficient, logP of the compound; type: physicochemical
Mus musculus [52] = assay: Biodistribution in S180 cells xenografted in mouse tumor at 8 to 10 uCi, iv after 60 mins by gamma counting; type: ADME, organism-based, Neoplasm, CCRF S-180; conditions: in vivo, 1 h
Liver [53] = assay: Biodistribution in S180 tumor-bearing mouse liver at 8 to 10 uCi, iv after 120 mins by gamma counting; type: ADME, organism-based; conditions: in vivo, 2 h
Brain [54] = assay: Biodistribution in S180 tumor-bearing mouse brain at 8 to 10 uCi, iv after 60 mins by gamma counting; type: ADME, organism-based; conditions: in vivo, 1 h
Liver [55] = assay: Biodistribution in S180 tumor-bearing mouse liver at 8 to 10 uCi, iv after 60 mins by gamma counting; type: ADME, organism-based; conditions: in vivo, 1 h
Nucleic Acid [56] = assay: Ratio of drug level in tumor to blood in S180 tumor-bearing mouse at 8 to 10 uCi, iv at 5 mins by gamma counting; type: ADME, organism-based; conditions: tumour

Q: Which results are given for `COc1cc2ncnc(Nc3cccc(Br)c3)c2cc1OCC[18F]`?
A: Drug uptake (Lung [1]): 12.21 % ID/g; Ratio (Nucleic Acid [2]): 0.2; Ratio (Nucleic Acid [3]): 17.42; Drug uptake (Muscle tissue [4]): 1.31 % ID/g; Drug uptake (Liver [5]): 7.96 % ID/g; Drug uptake (Lung [6]): 5.12 % ID/g; Drug uptake (Brain [7]): 0.78 % ID/g; Ratio (Nucleic Acid [8]): 2.56; Drug uptake (Brain [9]): 0.39 % ID/g; Drug uptake (Heart [10]): 0.98 % ID/g; Ratio (Nucleic Acid [11]): 10.36; Stability [12]: Stable; Drug uptake (Mus musculus [13]): 3.7 % ID/g; Drug uptake (Blood [14]): 4.43 % ID/g; Drug uptake (Spleen [15]): 0.8 % ID/g; Drug uptake (Liver [16]): 9.67 % ID/g; Drug uptake (Heart [17]): 4.79 % ID/g; Ratio (Nucleic Acid [18]): 0.49; Drug uptake (Blood [19]): 1.11 % ID/g; Ratio (Nucleic Acid [20]): 1.64; Drug uptake (Mus musculus [21]): 4.04 % ID/g; Ratio (Nucleic Acid [22]): 41.11; Drug uptake (Stomach [23]): 8.52 % ID/g; Drug uptake (Lung [24]): 3.6 % ID/g; Drug uptake (Blood [25]): 1.58 % ID/g; Drug uptake (Heart [26]): 1.12 % ID/g; Drug uptake (Muscle tissue [27]): 0.43 % ID/g; Drug uptake (Spleen [28]): 1.25 % ID/g; Drug uptake (Lung [29]): 5.6 % ID/g; Drug uptake (Muscle tissue [30]): 2.46 % ID/g; Ratio (Nucleic Acid [31]): 2.98; Ratio (Nucleic Acid [32]): 6.61; Drug uptake (Stomach [33]): 4.1 % ID/g; Drug uptake (Kidney [34]): 1.07 % ID/g; Drug uptake (Kidney [35]): 2.83 % ID/g; CL (Blood [36]): 88%; Drug uptake (Mus musculus [37]): 0.38 % ID/g; Drug uptake (Heart [38]): 1.87 % ID/g; Drug uptake (Kidney [39]): 0.9 % ID/g; Drug uptake (Blood [40]): 0.56 % ID/g; Drug uptake (Stomach [41]): 7.03 % ID/g; Drug uptake (Stomach [42]): 4.05 % ID/g; Stability [43]: Stable; Drug uptake (Spleen [44]): 1.05 % ID/g; Drug uptake (Spleen [45]): 2.84 % ID/g; Ratio (Nucleic Acid [46]): 2.82; Drug uptake (Muscle tissue [47]): 1.87 % ID/g; Drug uptake (Brain [48]): 0.09 % ID/g; Drug uptake (Kidney [49]): 10.85 % ID/g; Ratio (Nucleic Acid [50]): 7.7; Stability (Plasma): Stable; logP [51]: 0.89; Drug uptake (Mus musculus [52]): 3.31 % ID/g; Drug uptake (Liver [53]): 1.78 % ID/g; Drug uptake (Brain [54]): 0.19 % ID/g; Drug uptake (Liver [55]): 1.87 % ID/g; Ratio (Nucleic Acid [56]): 0.09
